# Measured values: patent US20240041899A1, “SOLID PREPARATION” (ASKA Pharmaceutical Co., Ltd., priority 2020, published 2024)
# What was measured:
# [1] = tested on: lower urinary tract obstruction model of rats (female); experiment: Test Example 1: urination function in lower urinary tract obstruction model of female rats; format: in vivo; conditions: oral once a day 2 weeks, Compound A 10 mg/kg
# Excerpt: A lower urinary tract obstruction model of rats was used as a test system. A test substance was orally administered to the lower urinary tract obstruction model repeatedly over two (2) weeks to examine the action on the urination function in the lower urinary tract obstruction model.
# More specifically, the rats (female, Crl:CD(SD), 8-week-old; Charles River Laboratories Japan, Inc.) were operated to form lower urinary tract obstruction and repeatedly received oral administration of the test substance at a frequency of once a day over two (2) weeks. After the completion of the administration, each rat was subjected to bladder catheterization under anesthesia, cystometry under no anesthesia, then cystometry under urethane anesthesia, and euthanasia under deep anesthesia, and the tissues (bladder, kidney) of the rat were extracted or surgically removed. As a normal group, the rats without operation for forming lower urinary tract obstruction were used.
# The test system, the test substances, and the dosage are as follows. • Normal group: 0.5 v/v % Polysorbate 80 solution, 10 mL/kg (n=6) • Solvent group (control group): 0.5 v/v % Polysorbate 80 solution, 10 mL/kg (n=15) • Group A: Compound A, 10 mg/kg (n=15) • Group B3: Compound B, 3 mg/kg (n=7) • Group B10: Compound B, 10 mg/kg (n=7)
# After urination, the residual urine was aspirated from the outlet end of the catheter placed in the bladder to measure the volume (mL) of the residual urine.
# After urination, the weight of the voided urine was measured to determine the voided volume (g=mL), and then the urination efficiency was calculated by the following equation: Urination efficiency (%)=[(Voided volume (mL))/(Voided volume (mL)+Residual urine volume (mL))]×100
# Bladder capacity (mL)=Voided volume (mL)+Residual urine volume (mL)
# Moreover, the wet weight of the extracted bladder and that of the extracted kidney were measured.
# [2] = tested on: rats having the urination disorder associated with diabetes; experiment: Test Example 4: urination disorder model associated with streptozocin-induced diabetes (tissue weights, blood glucose, cystometry, nomogram); format: in vivo; conditions: for Bladder weight / Blood glucose level / Kidney weight / Prostate weight, dorsolateral prostate / Prostate weight, ventral prostate / Prostate weight, whole / Seminal vesicle weight: 4 weeks; for Bladder weight / Blood glucose level / Kidney weight / Prostate weight, dorsolateral prostate / Prostate weight, ventral prostate / Prostate weight, whole / Seminal vesicle weight / Body weight: average ± SD; for Dorsolateral prostate atrophy rate / Seminal vesicle atrophy rate / Ventral prostate atrophy rate / Whole prostate atrophy rate: relative to solvent group; for Body weight: model with induced diabetes (STZ), male rats
# Description: As described below, as a urination disorder model, a urination disorder model associated with diabetes was prepared to evaluate the urination disorder. This model has no benign prostatic hyperplasia and is a model of a urination disorder associated with neuropathy and smooth muscle contraction disorder.
# The body weights of rats (male, Crl:CD(SD), 5-week-old; Charles River Laboratories Japan, Inc.) were measured. After the rats were fasted overnight, the blood was collected from the caudal vein to measure the fasting blood glucose. On the basis of the body weight and the fasting blood glucose level, the rats were grouped or divided into two (2) groups by randomized, multivariable block allocation. The day after the rats were grouped, a first group received intraperitoneal administration of a citrate buffer (pH 4.5) (10 mL/kg) having a concentration of 0.1 mmol/L, and a second group received intraperitoneal administration of streptozocin (STZ; Sigma-Aldrich) (50 mg/kg). Streptozocin (STZ) was administered in the form of a solution of streptozocin having a concentration of 5 mg/mL in the citrate buffer.
# About one (1) week after streptozocin (STZ) was administered, the body weight and the fasting blood glucose were measured. In the streptozocin (STZ) administration group (the second group), individuals having a fasting blood glucose level of not less than 300 mg/dL were used as animals with induced diabetes. These animals with induced diabetes are a model having no abnormality of the prostate (having no benign prostatic hyperplasia). On the basis of the body weight and the fasting blood glucose level, the animals (models) with induced diabetes were grouped or divided into three (3) groups by randomized, multivariable block allocation.
# To the three model groups with induced diabetes, a 0.5 v/v % Polysorbate 80 solution (0.5% P) (10 mL/kg), the compound A (3 mg/kg), and the compound A (10 mg/kg) were orally administered, respectively, wherein the administration schedule in all groups was a frequency of once a day, only on weekdays, over four (4) weeks. Moreover, to the above-mentioned first group, a 0.5 v/v % Polysorbate 80 solution (0.5% P) (10 mL/kg) was orally administered in the same administration schedule (normal group). On the last day of administration, a cannula was inserted into and secured to the dome of the bladder under isoflurane anesthesia, and cystometry (Cystometogram, CMG) was conducted in the order of under awake condition and under urethane anesthesia to measure the intravesical pressure, the voided volume, and the residual urine volume. After the completion of the measurement, the blood was collected under deep isoflurane anesthesia, and then the prostate (ventral prostate, dorsolateral prostate), the seminal vesicle, the bladder, and the kidney were extracted and were each weighed. Moreover, the blood glucose level in the collected blood was measured.
# The test substances and the dosage in the test system (rats having the urination disorder associated with diabetes) are as follows. • Normal group: citrate buffer 10 mL/kg (intraperitoneal administration), 0.5% P 10 mL/kg (oral administration) (n=10) • Solvent group (control group): STZ 50 mg/kg (intraperitoneal administration), 0.5% P 10 mL/kg (oral administration) (n=10) • Group A3: STZ 50 mg/kg (intraperitoneal administration), Compound A 3 mg/kg (oral administration) (n=10) • Group A10: STZ 50 mg/kg (intraperitoneal administration), Compound A 10 mg/kg (oral administration) (n=9)
# The resulting data of the intravesical pressure, the voided volume, and the residual urine volume were analyzed, and the bladder capacity (mL), the residual urine volume […], and the urination efficiency (%) were determined as urination parameters in each urination. With respect to these urination parameters, the average value of two measurements was calculated and was taken as a measured value of each individual. […]
# [3] = female rats, lower urinary tract obstruction, vs control group
# [4] = STZ diabetes model, 3 mg/kg, vs solvent group
# [5] = STZ diabetes model, 10 mg/kg, vs solvent group
# [6] = STZ diabetes model, Group A3 and Group A10 (3 and 10 mg/kg)
# [7] = STZ diabetes model, oral 3 mg/kg
# [8] = STZ diabetes model, oral 10 mg/kg
smiles,measurement,setting,value
"CC(=O)O[C@]1(C(C)=O)C[C@@H](O)[C@H]2[C@@H]3C=C(Cl)C4=CC(=O)OC[C@]4(C)[C@H]3CC[C@@]21C [Compound A, 17α-acetoxy-6-chloro-15β-hydroxy-2-oxa-4,6-pregnadiene-3,20-dione]",survival rate,[1]; female lower urinary tract obstruction rats,no decrease
same,wet weights of the bladder and the kidney,"[1]; female rats, lower urinary tract obstruction",in the direction of significantly inhibiting the increase
same,residual urine volume,"[1]; female rats, lower urinary tract obstruction, vs control (solvent) group",significantly decreased
same,bladder capacity,[1]; [3],significantly decreased
same,urination efficiency,[1]; [3],increased
same,"bladder capacity, cystometry (CMG) under awake condition",[2]; [4],significantly reduced
same,"residual urine volume, cystometry (CMG) under anesthesia",[2]; [4],significantly decreased
same,"residual urine volume, cystometry (CMG) under awake condition",[2]; [4],significantly reduced
same,"urination efficiency, cystometry (CMG) under awake condition",[2]; [4],improved
same,"bladder capacity, cystometry (CMG) under awake condition",[2]; [5],significantly reduced
same,"residual urine volume, cystometry (CMG) under anesthesia",[2]; [5],significantly decreased
same,"residual urine volume, cystometry (CMG) under awake condition",[2]; [5],significantly reduced
same,"bladder capacity, cystometry (CMG) under anesthesia","[2]; STZ diabetes model, 10 mg/kg, vs solvent group (P=0.0336, Williams's multiple comparison test)",reduced
same,"urination efficiency, cystometry (CMG) under awake condition","[2]; STZ diabetes model, 10 mg/kg, vs solvent group (P=0.0359, Williams's multiple comparison test)",significantly improved
same,"action on the body weight, the blood glucose level, or the bladder and kidney weights",[2]; [6],no action or influence
same,"urination efficiency, cystometry (CMG) under anesthesia",[2]; [6],improved
same,bladder contraction force on urination by nomogram analysis,"[2]; STZ diabetes model, Group A3 and Group A10 (3 and 10 mg/kg), in comparison with the solvent group",strong bladder contraction force
same,prostate and seminal vesicle weights,"[2]; STZ diabetes model, Group A3 and Group A10 (3 and 10 mg/kg), vs solvent group",significantly decreased
same,therapeutic effect on diabetes,"[2]; STZ diabetes model, blood glucose level of Group A3 and Group A10 relative to the solvent group",no therapeutic effect
same,Bladder weight,[2]; [7],79.3 ± 17.5 mg/100 g body weight
same,Blood glucose level,[2]; [7],912.8 ± 177.3 mg/dL
same,Kidney weight,[2]; [7],1114.9 ± 189.2 mg/100 g body weight
same,"Prostate weight, dorsolateral prostate",[2]; [7],35.3 ± 7.8 mg/100 g body weight
same,"Prostate weight, ventral prostate",[2]; [7],62.2 ± 11.4 mg/100 g body weight
same,"Prostate weight, whole",[2]; [7],97.5 ± 17.7 mg/100 g body weight
same,Seminal vesicle weight,[2]; [7],44.3 ± 9.6 mg/100 g body weight
same,Dorsolateral prostate atrophy rate,[2]; [7],(44.2%)
same,Seminal vesicle atrophy rate,[2]; [7],(41.8%)
same,Ventral prostate atrophy rate,[2]; [7],(43.0%)
same,Whole prostate atrophy rate,[2]; [7],(43.4%)
same,Bladder weight,[2]; [8],72.9 ± 11.6 mg/100 g body weight
same,Blood glucose level,[2]; [8],846.7 ± 342.5 mg/dL
same,Kidney weight,[2]; [8],1171.0 ± 213.3 mg/100 g body weight
same,"Prostate weight, dorsolateral prostate",[2]; [8],28.8 ± 6.1 mg/100 g body weight
same,"Prostate weight, ventral prostate",[2]; [8],53.1 ± 13.5 mg/100 g body weight
same,"Prostate weight, whole",[2]; [8],81.9 ± 19.0 mg/100 g body weight
same,Seminal vesicle weight,[2]; [8],37.9 ± 6.4 mg/100 g body weight
same,Dorsolateral prostate atrophy rate,[2]; [8],(54.5%)
same,Seminal vesicle atrophy rate,[2]; [8],(50.2%)
same,Ventral prostate atrophy rate,[2]; [8],(51.3%)
same,Whole prostate atrophy rate,[2]; [8],(52.5%)
same,Body weight,[2]; oral 3 mg/kg once a day on weekdays 4 weeks,327.5 ± 51.3 g
same,Body weight,[2]; oral 10 mg/kg once a day on weekdays 4 weeks,356.4 ± 80.9 g
